From patent publication US20250304563A1, “ACTIVATORS OF EFFECTOR T CELLS” (Orum Therapeutics, Inc., priority 2022, published 2025)

Assays:
Human primary T cells [1] = assay: T cell activation: secreted IL-2; assay type: cell-based; settings: 48 hours, fold over background normalized to Compound 141A; for IL-2 1 nM: 1 nM compound; for IL-2 10 nM: 10 nM compound; for IL-2 100 nM: 100 nM compound
Method: (§1) Human primary T cells were isolated from commercially available frozen peripheral blood mononuclear cells (HemaCare Corporation) or from fresh LeukoPaks (Research Blood Components). T cells were isolated through depletion of non-T cells using negative selection kit according to the manufacturer's protocol (Miltenyi Biotec, Human Pan T Cell Isolation Kit, 130-096-535). Isolated cells were cultured overnight at 37° C. with 5% CO2 and plated at 1×10^5 cells per well in XVivo-15 serum-free media (Lonza, 04-418Q) into 96 well plates coated with anti-CD3 (OKT3) antibody (ThermoFisher, 16-0037-85). To coat the plates for T cell capture, anti-CD3 antibody was diluted in PBS at 10 μg/mL and 100 μl added to each well. Plates were incubated at 4° C. overnight or at 37° C. for 2 hours and washed once with PBS before use. Serial dilutions of each compound were added in duplicates to the T cells to assess their effect on T cell activation. T cells treated with 5 μg/mL of CD28 antibody (ThermoFisher, 16-0289-85) or T cells stimulated by CD3 only were used as a control. Plates were incubated with the Cbl-b inhibitors for 48 hours at 37° C. with 5% CO2, and supernatants were subsequently analyzed for levels of the activation induced secreted cytokines IL-2 or IFN-y (BD Biosciences CBA Flex Beads, 558269, 558270). T cells were additionally stained with anti-CD69 antibody (Invitrogen, 12-0699-42 which labels a T cell activation associated membrane protein to and surface expression was measured by flow cytometry (ThermoFisher Attune NxT).
(§2) To control for natural inter-donor variability in T cell responses intrinsic to using primary human donor derived cells, secreted IL-2 and IFN-y measurements for each test compound were reported as the fold increase of the compound treated levels over background (antiCD3/CD28 treatment only) normalized to the values obtained for Compound 141A. Results for compound treatment-induced changes in CD69 levels are similarly reported as the fold increase due to compound treatment over anti-CD3 stimulated background only, normalized to values obtained for Compound 141A.
Normalized T cell IL-2 responses were sorted into ranges as follows: fold over background values between 1.41 and 1.8: range “X”, between 0.80 and 1.40: range “A”, values between 0.31 and 0.79: range “B” values between 0.10 and 0.30: range “C”, values between 0.01 and 0.09: range “D.”

Human primary T cells [2] = assay: T cell activation: secreted IFN-y; assay type: cell-based; settings: 48 hours, fold over background normalized to Compound 141A; for IFN-y 1 nM: 1 nM compound; for IFN-y 10 nM: 10 nM compound; for IFN-y 100 nM: 100 nM compound
Method: as §1, §2
Normalized T cell IFN-y responses were sorted into ranges as follows: fold over background between 1.10 and 2.00: range “A”, values between 0.31 and 1.00: range “B;” values between 0.10 and 0.30: range “C”, and values between 0.01 and 0.09: range “D.”

Human primary T cells [3] = assay: T cell activation: CD69 surface expression by flow cytometry; assay type: cell-based; settings: fold over anti-CD3 stimulated background normalized to Compound 141A; for CD69 10 nM: 10 nM compound; for CD69 100 nM: 100 nM compound
Method: as §1, §2
Similarly, bins for normalized CD69 levels were sorted into ranges as follows: fold over background values between 1.11 and 1.6: range “X”, values between 0.81 and 1.10: range “A”; values between 0.61 and 0.80: range “B;” values between 0.30 and 0.60: range “C”.

[4] = target: Cbl-b (36-427 aa truncated form, N-terminus Avi-tag) (Homo sapiens (Human), UniProt Q13191); assay: Cbl-b binding: TR-FRET displacement of BODIPY-FL probe
Chain of Cbl-b (36-427 aa truncated form, N-terminus Avi-tag) (Q13191 36-427): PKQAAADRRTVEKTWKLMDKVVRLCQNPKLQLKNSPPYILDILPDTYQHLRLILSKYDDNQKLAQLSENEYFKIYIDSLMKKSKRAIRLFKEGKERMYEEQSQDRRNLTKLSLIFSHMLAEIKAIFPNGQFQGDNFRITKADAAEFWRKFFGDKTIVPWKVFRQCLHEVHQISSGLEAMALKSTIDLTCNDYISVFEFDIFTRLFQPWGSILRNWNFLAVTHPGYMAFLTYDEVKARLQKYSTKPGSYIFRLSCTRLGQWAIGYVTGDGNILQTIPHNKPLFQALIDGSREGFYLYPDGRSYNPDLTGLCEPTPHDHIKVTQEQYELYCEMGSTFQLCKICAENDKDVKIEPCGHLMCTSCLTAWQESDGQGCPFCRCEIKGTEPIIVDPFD
Method: Compounds were assessed for binding activity to Cbl-b by their ability to compete with and displace a probe comprised of BODIPY-FL fluorophore conjugated to a Cbl-b inhibitor (see Example 54 in WO2020264398). In the assay, a 36-427 aa truncated form of Cbl-b with an N-terminus Avi-tag was incubated 20 mM HEPES pH 7.5, 150 mM NaCl, 0.01% Triton X-100, 0.1% BSA, 0.5 mM TCEP buffer with streptavidin-terbium (Cisbio). After one hour of incubation at room temperature, 1 uM each of fluorescent probe and compound were combined with the reaction mixture. Compounds with Cbl-b binding activity competitively displace the fluorophore tagged inhibitor thereby disrupting the FRET signal from the terbium-BODIPY-FL complex. The reaction mixtures were incubated for one additional hour at room temperature to allow for competition between inhibitor and candidate compounds to occur. The time resolved FRET (TR-FRET) signal was then read at 520/620 […] (excitation/emission) using a Spectramax M5e plate reader (Molecular Devices) to measure probe displacement. Compounds with Cbl-b binding activity had decreased FRET signal owing to disruption of the terbium-BODIPY-FL FRET complex. Standard methods in PRISM were used to calculate the compound IC50 values from the experimental data.

IC50 [4] [µM]	Molecule	IL-2 1 nM (Human primary T cells [1])	IL-2 10 nM (Human primary T cells [1])	IL-2 100 nM (Human primary T cells [1])	IFN-y 1 nM (Human primary T cells [2])	IFN-y 10 nM (Human primary T cells [2])	IFN-y 100 nM (Human primary T cells [2])	CD69 10 nM (Human primary T cells [3])	CD69 100 nM (Human primary T cells [3])
0.00501 to 0.02	CNCC(=O)Nc1cc(C2(Cc3nncn3C)COC2)cc(N2Cc3c(cc(CN4CCC[C@H](C)C4)cc3C(F)(F)F)C2=O)n1 [Compound 101, N-(4-{3-[(4-methyl-1,2,4-triazol-3-yl)methyl]oxetan-3-yl}-6-(6-{[(3S)-3-methylpiperidin-1-yl]methyl}-1-oxo-4-(trifluoromethyl)-3H-isoindol-2-yl)pyridin-2-yl)-2-(methylamino)acetamide; formic acid]	–	–	–	–	–	–	–	–
0.1 to 1	CNCc1cc(C2(Cc3nncn3C)COC2)cc(N2Cc3c(cc(CN4CCC[C@H](C)C4)cc3C(F)(F)F)C2=O)n1 [Compound 104, 2-(4-{3-[(4-methyl-1,2,4-triazol-3-yl)methyl]oxetan-3-yl}-6-[(methylamino)methyl]pyridin-2-yl)-6-{[(3S)-3-methylpiperidin-1-yl]methyl}-4-(trifluoromethyl)-3H-isoindol-1-one; trifluoroacetic acid]	–	–	–	–	–	–	–	–
0.1 to 1	CSC(C)(C)CNc1cc(C2(Cc3nncn3C)COC2)cc(N2Cc3c(cc(CN4CCC[C@H](C)C4)cc3C(F)(F)F)C2=O)n1 [Compound 105, 2-(4-{3-[(4-methyl-1,2,4-triazol-3-yl)methyl]oxetan-3-yl}-6-{[2-methyl-2-(methylsulfanyl)propyl]amino}pyridin-2-yl)-6-{[(3S)-3-methylpiperidin-1-yl]methyl}-4-(trifluoromethyl)-3H-isoindol-1-one; formic acid]	–	–	–	–	–	–	–	–
0.001 to 0.005	C[C@H]1CCCN(Cc2cc3c(c(C(F)(F)F)c2)CN(c2cc(C4(Cc5nncn5C)COC4)cc(NCCS)n2)C3=O)C1 [Compound 108, 2-(4-{3-[(4-methyl-1,2,4-triazol-3-yl)methyl]oxetan-3-yl}-6-[(2-sulfanylethyl)amino]pyridin-2-yl)-6-{[(3S)-3-methylpiperidin-1-yl]methyl}-4-(trifluoromethyl)-3H-isoindol-1-one]	–	–	–	–	–	–	–	–
0.1 to 1	C#CCNc1cc(C2(Cc3nncn3C)COC2)cc(N2Cc3c(cc(CN4CCC[C@H](C)C4)cc3C(F)(F)F)C2=O)n1 [Compound 109, (S)-2-(4-(3-((4-methyl-4H-1,2,4-triazol-3-yl)methyl)oxetan-3-yl)-6-(prop-2-yn-1-ylamino)pyridin-2-yl)-6-((3-methylpiperidin-1-yl)methyl)-4-(trifluoromethyl)isoindolin-1-one]	–	–	–	–	–	–	–	–
0.1 to 1	CCNc1cc([C@]2(c3nncn3C)C[C@@H](C)C2)nc(N2Cc3c(cc(CN4CCC[C@H](C)C4)cc3C(F)(F)F)C2=O)n1 [Compound 114A, 2-[4-(ethylamino)-6-[(1s,3R)-3-methyl-1-(4-methyl-1,2,4-triazol-3-yl)cyclobutyl]pyrimidin-2-yl]-6-{[(3S)-3-methylpiperidin-1-yl]methyl}-4-(trifluoromethyl)-3H-isoindol-1-one]	–	–	–	–	–	–	–	–
0.1 to 1	CCNc1cc([C@]2(c3nncn3C)C[C@H](C)C2)nc(N2Cc3c(cc(CN4CCC[C@H](C)C4)cc3C(F)(F)F)C2=O)n1 [Compound 114B, 2-[4-(ethylamino)-6-[(1r,3S)-3-methyl-1-(4-methyl-1,2,4-triazol-3-yl)cyclobutyl]pyrimidin-2-yl]-6-{[(3S)-3-methylpiperidin-1-yl]methyl}-4-(trifluoromethyl)-3H-isoindol-1-one]	–	–	–	–	–	–	–	–

Continued, molecule first:

Molecule	IC50 [4] [µM]	IL-2 1 nM (Human primary T cells [1])	IL-2 10 nM (Human primary T cells [1])	IL-2 100 nM (Human primary T cells [1])	IFN-y 1 nM (Human primary T cells [2])	IFN-y 10 nM (Human primary T cells [2])	IFN-y 100 nM (Human primary T cells [2])	CD69 10 nM (Human primary T cells [3])	CD69 100 nM (Human primary T cells [3])
C[C@H]1CCCN(Cc2cc3c(c(C(F)(F)F)c2)CN(c2cc(C4(Cc5nncn5C)COC4)cc(OCCO)n2)C3=O)C1 [Compound 100, 2-[6-(2-hydroxyethoxy)-4-{3-[(4-methyl-1,2,4-triazol-3-yl)methyl]oxetan-3-yl}pyridin-2-yl]-6-{[(3S)-3-methylpiperidin-1-yl]methyl}-4-(trifluoromethyl)-3H-isoindol-1-one]	–	C (values between 0.10 and 0.30: range “C”)	B (values between 0.31 and 0.79: range “B”)	B (values between 0.31 and 0.79: range “B”)	C (values between 0.10 and 0.30: range “C”)	B (values between 0.31 and 1.00: range “B;”)	B (values between 0.31 and 1.00: range “B;”)	C (values between 0.30 and 0.60: range “C”)	A (values between 0.81 and 1.10: range “A”)
CCOc1cc(C2(Cc3nncn3C)COC2)cc(N2Cc3c(cc(CN4CCC[C@H](C)C4)cc3C(F)(F)F)C2=O)n1 [Compound 146]	–	B (values between 0.31 and 0.79: range “B”)	B (values between 0.31 and 0.79: range “B”)	A (between 0.80 and 1.40: range “A”)	B (values between 0.31 and 1.00: range “B;”)	A (fold over background between 1.10 and 2.00: range “A”)	A (fold over background between 1.10 and 2.00: range “A”)	A (values between 0.81 and 1.10: range “A”)	A (values between 0.81 and 1.10: range “A”)
CCNc1cc(C2(Cc3nncn3C)COC2)cc(N2Cc3c(cc(CN4CCC[C@H](C)C4)cc3C(F)(F)F)C2=O)n1 [Compound 147]	–	B (values between 0.31 and 0.79: range “B”)	B (values between 0.31 and 0.79: range “B”)	A (between 0.80 and 1.40: range “A”)	B (values between 0.31 and 1.00: range “B;”)	A (fold over background between 1.10 and 2.00: range “A”)	A (fold over background between 1.10 and 2.00: range “A”)	A (values between 0.81 and 1.10: range “A”)	A (values between 0.81 and 1.10: range “A”)
C[C@H]1CCCN(Cc2cc3c(c(C(F)(F)F)c2)CN(c2cccc([C@]4(c5nncn5C)C[C@@H](C)C4)c2)C3=O)C1 [Compound 148]	–	B (values between 0.31 and 0.79: range “B”)	A (between 0.80 and 1.40: range “A”)	A (between 0.80 and 1.40: range “A”)	B (values between 0.31 and 1.00: range “B;”)	A (fold over background between 1.10 and 2.00: range “A”)	A (fold over background between 1.10 and 2.00: range “A”)	A (values between 0.81 and 1.10: range “A”)	A (values between 0.81 and 1.10: range “A”)
(3S)-1-[6-(2,5-dioxopyrrol-1-yl)hexyl]-1-({2-[6-(ethylsulfanyl)-4-{3-[(4-methyl-1,2,4-triazol-3-yl)methyl]oxetan-3-yl}pyridin-2-yl]-3-oxo-7-(trifluoromethyl)-1H-isoindol-5-yl}methyl)-3-methylpiperidin-1-ium [Compound 209]	–	C (values between 0.10 and 0.30: range “C”)	C (values between 0.10 and 0.30: range “C”)	B (values between 0.31 and 0.79: range “B”)	C (values between 0.10 and 0.30: range “C”)	C (values between 0.10 and 0.30: range “C”)	B (values between 0.31 and 1.00: range “B;”)	C (values between 0.30 and 0.60: range “C”)	B (values between 0.61 and 0.80: range “B;”)
